These are literature values, as cited in US20220080043A1, “OIL/SURFACTANT MIXTURES FOR SELF-EMULSIFICATION” (priority 2019, published 2022).

The conditions of this series: Table 2; surfactants used.

In the case of sorbitan monooleate [Span80], the HLB is 4.3.
